Source: patent US20240360126A1, “PYRAZOLO[3,4-B]PYRIDINE COMPOUNDS FOR THE TREATMENT OF AUTOIMMUNE DISEASE” (Hoffmann-La Roche Inc., priority 2021, published 2024)

Tests used:
TLR9 = molecular target: T1, TLR9 (Homo sapiens, UniProt Q9NR96); test: Human PBMC cell-based assay; set-up: These cells express TLR7, TLR8, or TLR9, and therefore are natural responders to respective ligand stimulation; endogenous in cells; host or cells: human PBMC from healthy donor whole blood; conditions: CpG ODN 2216 at 1 μM, read-out: hPBMC/TLR9 IC50
T1 sequence (Q9NR96 26-1032): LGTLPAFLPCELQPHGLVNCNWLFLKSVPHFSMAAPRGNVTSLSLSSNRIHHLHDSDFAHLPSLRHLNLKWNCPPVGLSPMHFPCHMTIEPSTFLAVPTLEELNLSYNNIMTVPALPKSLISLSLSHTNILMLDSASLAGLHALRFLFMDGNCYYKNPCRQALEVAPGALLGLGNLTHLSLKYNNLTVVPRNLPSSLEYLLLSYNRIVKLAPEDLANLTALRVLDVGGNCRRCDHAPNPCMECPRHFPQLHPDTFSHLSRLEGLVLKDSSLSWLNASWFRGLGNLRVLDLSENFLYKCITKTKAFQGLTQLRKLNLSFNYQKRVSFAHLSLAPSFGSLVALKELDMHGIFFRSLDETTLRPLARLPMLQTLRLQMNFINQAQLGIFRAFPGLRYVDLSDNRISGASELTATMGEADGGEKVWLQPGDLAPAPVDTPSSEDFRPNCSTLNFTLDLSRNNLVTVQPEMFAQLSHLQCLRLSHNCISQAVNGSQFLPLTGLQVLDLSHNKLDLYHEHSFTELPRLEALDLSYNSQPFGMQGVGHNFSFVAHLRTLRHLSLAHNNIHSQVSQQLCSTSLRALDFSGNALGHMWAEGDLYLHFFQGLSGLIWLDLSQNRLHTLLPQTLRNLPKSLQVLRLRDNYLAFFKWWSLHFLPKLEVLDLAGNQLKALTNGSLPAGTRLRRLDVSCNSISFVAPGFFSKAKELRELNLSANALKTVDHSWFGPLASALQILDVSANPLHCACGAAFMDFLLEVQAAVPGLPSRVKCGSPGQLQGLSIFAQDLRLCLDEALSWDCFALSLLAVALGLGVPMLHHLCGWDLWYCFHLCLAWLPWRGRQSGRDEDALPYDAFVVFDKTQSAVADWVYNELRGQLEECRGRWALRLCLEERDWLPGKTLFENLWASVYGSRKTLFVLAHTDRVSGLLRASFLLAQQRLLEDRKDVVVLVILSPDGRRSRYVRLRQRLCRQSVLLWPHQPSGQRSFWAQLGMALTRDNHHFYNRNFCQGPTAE
Text: Unlike the HEK reporter cell lines, human peripheral blood mononuclear cell (PBMC) represents primary human immune cells in blood mainly consisting of lymphocytes, monocytes, and dendritic cells. These cells express TLR7, TLR8, or TLR9, and therefore are natural responders to respective ligand stimulation. Upon activation of these TLRs, PBMCs secrete similar cytokines and chemokines in vitro and in vivo, and therefore the in vitro potency of a TLR7/8/9 antagonist in human PBMC is readily translatable to its pharmacodynamics response in vivo.
Human peripheral blood mononuclear cells (PBMC) were isolated from freshly-drawn lithium-heparinized (Lithium Heparin Plus blood Collection tube, BD Vacutainer®) healthy donor whole blood by density gradient (Ficoll-Paque™ PLUS, GE Healthcare life Sciences). Briefly, […] was diluted with 25 mL PBS (without Ca^2+, Mg^2+) in a 50 mL conical tube with porous barrier (Leucosep tube, Greiner bio-one), where 15.5 mL Ficoll-Paque was under laid after spinning. Tubes were centrifuged for 20 minutes at 800×g (1946 rpm) with the brake in the off position, and PBMC were collected from the buffy coat. Cells were then washed twice in PBS, and red blood cells were lysed by suspension in 2 mL (Red Blood Cell Lysis Buffer, Alfa Aesar) for 5-10 minutes at room temperature. After a final wash in PBS, PBMC were resuspended at a final concentration of 2×10^6 cells/mL in RPMI-1640 media with GlutaMAX™ (Gibco) supplemented with 10% Fetal Bovine Serum (Sigma) and plated at 150 μL/well (3×10^5 cells/well) in tissue culture treated round bottom 96-well plates (Corning Incorporated). Antagonist compounds (compounds of this invention) solubilized and serial diluted in 100% DMSO were added in duplicate to cells to yield a final concentration of 1% DMSO (v/v). PBMC were incubated with antagonist compounds for 30 minutes at 37° C., 5% CO2 before adding various TLR agonist reagents in 48 μL complete media per well as follows (final concentrations indicated): CpG ODN 2216 (InvivoGen) at 1 μM for TLR9, ORN 06/LyoVec (InvivoGen) at […] for TLR8 and R848 (InvivoGen) at 1 μg/mL for TLR7 and TLR8. PBMC were incubated overnight at 37° C. with 5% C02. Cell culture supernatants were collected, and levels of various human cytokines were assessed by Luminex assay (ProcartaPlex™ Multiplex Immunoassay, Invitrogen) or ELISA procedure according to the manufacturer's recommended protocol (eBioscience, ThermoFisher Scientific). Viability of the cells was also checked with Cell Viability Assay (CellTiter Glo® Luminescent Cell Viability Assay, Promega).

[1] = Human microsome stability assay; format: in vitro ADME; conditions: 1 μM test compound, 0.5 mg/mL liver microsomal protein, 37° C.
Procedure: The human microsomal stability assay is used for early assessment of metabolic stability of a test compound in human liver microsomes.
Human liver microsomes (Cat. NO.: 452117, Corning, USA; Cat. NO.:H2610, Xenotech, USA) were preincubated with test compound for 10 minutes at 37° C. in 100 mM potassium phosphate buffer, pH 7.4. The reactions were initiated by adding NADPH regenerating system.
The final incubation mixtures contained 1 μM test compound, 0.5 mg/mL liver microsomal protein, 1 mM MgCl2, 1 mM NADP, 1 unit/mL isocitric dehydrogenase and 6 mM isocitric acid in 100 mM potassium phosphate buffer, pH 7.4. After incubation times of 0, 3, 6, 9, 15 and 30 minutes at 37° C., 300 μL of cold acetonitrile (including internal standard) was added to 100 μL incubation mixture to terminate the reaction. Following precipitation and centrifugation, the amount of compound remaining in the samples were determined by LC-MS/MS. Controls of no NADPH regenerating system at zero and 30 minutes were also prepared and analyzed.

SMILES	IC50 (TLR9) [nM]	Clearance of Human microsome [1] [mL/min/kg]
Cc1cc(N2CC[C@H](c3ccc(N4CCOC[C@@H](N)C4)cn3)[C@@H](C)C2)c2cnn(C)c2n1 [Example 40, (6S)-4-[6-[(3R,4S)-1-(1,6-dimethylpyrazolo[3,4-b]pyridin-4-yl)-3-methyl-4-piperidyl]-3-pyridyl]-1,4-oxazepan-6-amine]	540	8.1
Cc1cc(N2CCNCC2)cnc1C1CCN(c2ccnc3c2cnn3C)CC1 [Example 5, 1-methyl-4-[4-(3-methyl-5-piperazin-1-yl-2-pyridyl)-1-piperidyl]pyrazolo[3,4-b]pyridine]		9.1
Cc1cc(N2CC[C@@H](c3ncc(N4CC5(CNCCO5)C4)cc3C)[C@H](C)C2)c2cnn(C)c2n1 [Example 27, 2-[6-[(3S,4R)-1-(1,6-dimethylpyrazolo[3,4-b]pyridin-4-yl)-3-methyl-4-piperidyl]-5-methyl-3-pyridyl]-5-oxa-2,8-diazaspiro[3.5]nonane]	380	9.1
CO[C@H]1CN(c2ccc([C@H]3CCN(c4cc(C)nc5c4cnn5C)C[C@@H]3C)nc2)CC[C@@H]1N [Example 39, (3S,4S)-1-[6-[(3R,4S)-1-(1,6-dimethylpyrazolo[3,4-b]pyridin-4-yl)-3-methyl-4-piperidyl]-3-pyridyl]-3-methoxy-piperidin-4-amine]		6.7
Cc1cc(N2CC[C@@H](c3ncc(N4CC(C)(N)C4)cc3C)[C@H](C)C2)c2cnn(C)c2n1 [Example 32, 1-[6-[(3S,4R)-1-(1,6-dimethylpyrazolo[3,4-b]pyridin-4-yl)-3-methyl-4-piperidyl]-5-methyl-3-pyridyl]-3-methyl-azetidin-3-amine]	320	8.8
Cc1cc(N2CC[C@H](c3ccc(N4CC[C@@H](N)[C@H](F)C4)cn3)[C@@H](C)C2)c2cnn(C)c2n1 [Example 41, (3R,4R)-1-[6-[(3R,4S)-1-(1,6-dimethylpyrazolo[3,4-b]pyridin-4-yl)-3-methyl-4-piperidyl]-3-pyridyl]-3-fluoro-piperidin-4-amine]		7.2
Cc1cc(N2CC[C@@H](c3ncc(N4CC[C@@H](N)[C@H](F)C4)cc3C)[C@H](C)C2)c2cnn(C)c2n1 [Example 31, (3R,4R)-1-[6-[(3S,4R)-1-(1,6-dimethylpyrazolo[3,4-b]pyridin-4-yl)-3-methyl-4-piperidyl]-5-methyl-3-pyridyl]-3-fluoro-piperidin-4-amine]	410	
Cc1cc(N2CCNCC2)ncc1C1CCN(c2ccnc3c2cnn3C)CC1 [Example 6, 1-methyl-4-[4-(4-methyl-6-piperazin-1-yl-3-pyridyl)-1-piperidyl]pyrazolo[3,4-b]pyridine]	617	9.3
COc1cc(N2CCNCC2)cnc1C1CCN(c2cc(C)nc3c2cnn3C)CC1 [Example 14, 4-[4-(3-methoxy-5-piperazin-1-yl-2-pyridyl)-1-piperidyl]-1,6-dimethyl-pyrazolo[3,4-b]pyridine]	340	6.7
CO[C@@H]1CN(c2cnc([C@@H]3CCN(c4cc(C)nc5c4cnn5C)C[C@H]3C)c(C)c2)C[C@H]1N [Example 26, (3R,4R)-1-[6-[(3S,4R)-1-(1,6-dimethylpyrazolo[3,4-b]pyridin-4-yl)-3-methyl-4-piperidyl]-5-methyl-3-pyridyl]-4-methoxy-pyrrolidin-3-amine]	330	
CCc1cc(N2CCNCC2)cnc1C1CCN(c2cc(C)nc3c2cnn3C)CC1 [Example 13, 4-[4-(3-ethyl-5-piperazin-1-yl-2-pyridyl)-1-piperidyl]-1,6-dimethyl-pyrazolo[3,4-b]pyridine]		7.2
Cc1cc(N2CCC(c3cnc(N4CCNCC4)cc3C)[C@H](C)C2)c2cnn(C)c2n1 (single isomer, unassigned) [Example 20, 1,6-dimethyl-4-[cis-3-methyl-4-(4-methyl-6-piperazin-1-yl-3-pyridyl)-1-piperidyl]pyrazolo[3,4-b]pyridine]		9.0
COC[C@H]1CN(c2ccc([C@H]3CCN(c4cc(C)nc5c4cnn5C)C[C@@H]3C)nc2)CCN1 [Example 37, 4-[(3R,4S)-4-[5-[(3R)-3-(methoxymethyl)piperazin-1-yl]-2-pyridyl]-3-methyl-1-piperidyl]-1,6-dimethyl-pyrazolo[3,4-b]pyridine]		6.2
Cc1cc(N2CC[C@H](c3ccc(N4CC5(CNCCO5)C4)cn3)[C@@H](C)C2)c2cnn(C)c2n1 [Example 38, 2-[6-[(3R,4S)-1-(1,6-dimethylpyrazolo[3,4-b]pyridin-4-yl)-3-methyl-4-piperidyl]-3-pyridyl]-5-oxa-2,8-diazaspiro[3.5]nonane]		7.8
Cc1cc(N2CCC(c3cnc(N4CCNCC4)cn3)CC2)c2cnn(C)c2n1 [Example 3, 1,6-dimethyl-4-[4-(5-piperazin-1-ylpyrazin-2-yl)-1-piperidyl]pyrazolo[3,4-b]pyridine]		9.3
Cc1cc(N2CC[C@@H](c3ccc(N4CCNCC4)cn3)[C@H](C)C2)c2cnn(C)c2n1 [Example 34, 1,6-dimethyl-4-[(3S,4R)-3-methyl-4-(5-piperazin-1-yl-2-pyridyl)-1-piperidyl]pyrazolo[3,4-b]pyridine]		9.8
Cc1cc(N2CCC(c3ncc(N4CCNCC4)cc3C)[C@H](C)C2)c2cnn(C)c2n1 (single isomer, unassigned) [Example 25, 1,6-dimethyl-4-[trans-3-methyl-4-(3-methyl-5-piperazin-1-yl-2-pyridyl)-1-piperidyl]pyrazolo[3,4-b]pyridine]	320	
